{"source": "patent US20040234588A1", "about": "(priority 2000, published 2004)", "key": {"[1]": {"assay_type": "physicochemical"}, "[2]": {"test_system": "Human glioma cell line SF-767", "assay_type": "cell-based", "conditions": "cells pretreated with chloroquine 30 minutes at 37° C., nanoemulsion/p-PLL/DNA complex, two quantities"}, "rat 9L glioma cells": {"test_system": "rat 9L glioma cells", "assay_type": "cell-based"}, "[3]": {"assay_type": "physicochemical", "conditions": "after 38 days at 4° C., HPLC"}, "[4]": {"test_system": "human glioma cells 767 SF", "assay_type": "cell-based", "conditions": "for Concentration of B in the cells after 18 hrs incubation: initial B in the media 38 μg"}}, "note": "Where two headings read alike, the source gives them in different places."}
{"compound": "C[C@@H]1[C@H](O)[C@@H](C)/C=C/C=C/C=C/C=C/C=C/C=C/C=C/[C@H](O[C@@H]2O[C@H](C)[C@@H](O)[C@H](N)[C@@H]2O)C[C@@H]2O[C@](O)(C[C@@H](O)C[C@@H](O)[C@H](O)CC[C@@H](O)C[C@@H](O)CC(=O)O[C@H]1C)C[C@H](O)[C@H]2C(=O)O", "note": "[AmpB, Amphotericin B]", "values": [{"measurement": "AmpB incorporated in the submicron emulsion system", "setting": "[1]; 10 mg AmpB added to 100 mg lipids", "result": 2.33, "unit": "mg"}, {"measurement": "incorporated AmpB recovered with the first fraction", "setting": "[1]; first fraction, particle size 177 nm", "result": 72, "unit": "%"}]}
{"compound": "CCN(CC)CCCC(C)Nc1ccnc2cc(Cl)ccc12", "note": "(stereo not drawn) [chloroquine]", "values": [{"measurement": "effect on transfection efficiency (β-galactosidase activity)", "setting": "[2]", "result": "greatly increased the transfection efficiency"}]}
{"compound": "cholesteryl 1,12-dicarba-closo-dodecaborane 1-carboxylate [BCH]", "values": [{"measurement": "Concentration of B in the cells after 18 hrs incubation", "setting": "rat 9L glioma cells; High concentration: initial B in the media 16.5 μg/ml", "result": "61 ± 13", "unit": "μg/g cells"}, {"measurement": "Concentration of B in the cells after 18 hrs incubation", "setting": "rat 9L glioma cells; Low concentration: initial B in the media 8.25 μg/ml", "result": "50 ± 10", "unit": "μg/g cells"}, {"measurement": "initial BCH recovered from the formulation", "setting": "[3]", "result": "about 85%"}, {"measurement": "uptake in FBS relative to LPDS", "setting": "[4]; FBS (lipoproteins present) vs LPDS (no lipoproteins)", "result": "more than triple"}, {"measurement": "Concentration of B in the cells after 18 hrs incubation", "setting": "[4]; FBS media", "result": "57.6 ± 15.5", "unit": "μg/g cells"}, {"measurement": "Concentration of B in the cells after 18 hrs incubation", "setting": "[4]; LPDS media", "result": "14.7 ± 3.5", "unit": "μg/g cells"}]}
